Results published in ChEMBL document CHEMBL5154886, “Novel Capsid Inhibitors for Treating HIV Infection” (ACS Med Chem Lett, 2022).

Test system: Human immunodeficiency virus 1
Assay: Antiviral activity against HIV-1 IIIB infected in human MT4 cells assessed as inhibition of viral replication measured after 5 days by Celltiter-Glo assay
Format: functional, organism-based
Settings: Human immunodeficiency virus 1, IIIB, MT4, 120 h

Work on `Cc1nc2nc([C@H](Cc3cc(F)cc(F)c3)NC(=O)Cn3nc(C(F)F)c4c3C(F)(F)[C@@H]3C[C@H]43)c(-c3ccc(Cl)c4c(NS(C)(=O)=O)nn(C)c34)cc2[nH]1` yielded an EC50 of 1.6 nM.

For `COCc1nc2nc([C@H](Cc3cc(F)cc(F)c3)NC(=O)Cn3nc(C(F)F)c4c3C(F)(F)[C@@H]3C[C@H]43)c(-c3ccc(Cl)c4c(NS(C)(=O)=O)nn(C)c34)cc2[nH]1`, the EC50 was 1.5 nM.

For `COCc1nc2nc([C@H](Cc3cc(F)cc(F)c3)NC(=O)Cn3nc(C(F)(F)F)c4c3C(F)(F)[C@@H]3C[C@H]43)c(-c3ccc(Cl)c4c(NS(C)(=O)=O)nn(C)c34)cc2[nH]1`, the EC50 was 2.1 nM.

`Cn1cc(-c2nc3nc([C@H](Cc4cc(F)cc(F)c4)NC(=O)Cn4nc(C(F)F)c5c4C(F)(F)[C@@H]4C[C@H]54)c(-c4ccc(Cl)c5c(NS(C)(=O)=O)nn(C)c45)cc3[nH]2)cn1` gave an EC50 of 3 nM.

Compound `Cn1nc(N)c2cccc(-c3cc4sc(N5CC(C)(O)C5)nc4nc3[C@H](Cc3cc(F)cc(F)c3)NC(=O)Cn3nc(C(F)F)c4c3C3CC3CC4)c21` (stereo partly specified) has an EC50 of 1.3 nM.

For `Cc1nc2nc([C@H](Cc3cc(F)cc(F)c3)NC(=O)Cn3nc(C(F)(F)F)c4c3C(F)(F)[C@@H]3C[C@H]43)c(-c3ccc(Cl)c4c(NS(C)(=O)=O)nn(C)c34)cc2[nH]1`, the EC50 was 2.4 nM.
